Earlier results on one compound are cited in patent US7741050B2, “Identification of agonistic autoantibodies” (Max-Delbrueck-Centrum fuer Molkulare Medizin, priority 2002, dated 2010).

This data set concerns the target T1, AT1 receptor of cultivated cardiomyocytes (Rattus norvegicus, UniProt P25095).
T1 construct: can stimulate the AT1 receptor of cultivated cardiomyocytes; endogenous in cells; host or cells: primary cultivated cardiomyocytes of newborn rats
T1 sequence (P25095 1-359): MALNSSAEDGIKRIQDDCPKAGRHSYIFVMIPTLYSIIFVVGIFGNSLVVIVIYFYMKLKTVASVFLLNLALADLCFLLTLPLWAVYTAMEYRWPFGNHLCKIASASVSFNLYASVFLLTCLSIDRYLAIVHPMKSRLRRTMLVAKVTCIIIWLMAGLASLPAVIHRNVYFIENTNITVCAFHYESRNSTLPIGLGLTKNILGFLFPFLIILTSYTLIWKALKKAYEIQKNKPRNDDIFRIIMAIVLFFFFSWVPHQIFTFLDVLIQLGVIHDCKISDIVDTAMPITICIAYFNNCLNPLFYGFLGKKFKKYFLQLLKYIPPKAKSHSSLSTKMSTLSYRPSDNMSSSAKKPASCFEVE
The note with it: Losartan 1 μM added to cardiomyocytes stimulated by antibodies of preeclamptic women; cited from earlier work.

For `CCCCc1nc(Cl)c(CO)n1Cc1ccc(-c2ccccc2-c2nn[nH]n2)cc1` [Losartan], the beats per minute result was “reduced”.
